Reference: the NIST ThermoML archive (doi:10.1021/je0604378)

Settings: Liquid; for speed of sound: Pulse-echo method; for mass density: 101.33 kPa

CCCCCCCCCCO [decan-1-ol]
Settings | speed of sound [m/s]
292.86 K, 60790 kPa | 1646.3
292.9 K, 30390 kPa | 1533.8
292.91 K, 15200 kPa | 1470.6
292.96 K, 45590 kPa | 1592
293.1 K, 100 kPa | 1397.2
297.95 K, 15200 kPa | 1453.8
297.95 K, 66240 kPa | 1649.8
297.96 K, 30390 kPa | 1518
297.96 K, 60790 kPa | 1631.4
297.96 K, 69300 kPa | 1660
297.98 K, 45590 kPa | 1576.8
297.99 K, 71850 kPa | 1668.2
297.99 K, 73520 kPa | 1673.6
297.99 K, 74700 kPa | 1677.6
298 K, 75990 kPa | 1681.7
298.07 K, 100 kPa | 1380
302.92 K, 15200 kPa | 1436.8
303.02 K, 60790 kPa | 1617
303.03 K, 66240 kPa | 1635.7
303.03 K, 71560 kPa | 1653.5
303.04 K, 100 kPa | 1362.8
303.04 K, 73600 kPa | 1660.2
303.05 K, 69230 kPa | 1645.7
303.08 K, 30390 kPa | 1501.5
303.09 K, 75990 kPa | 1667.8
303.11 K, 45590 kPa | 1561
303.15 K, 74790 kPa | 1664.1
307.92 K, 75990 kPa | 1655.1
307.93 K, 74720 kPa | 1650.9
307.94 K, 73310 kPa | 1646.2
307.95 K, 65860 kPa | 1620.9
307.96 K, 60790 kPa | 1603.1
307.96 K, 68850 kPa | 1631.3
307.96 K, 71380 kPa | 1639.8
307.97 K, 30390 kPa | 1486.6
307.98 K, 45590 kPa | 1546.9
308.04 K, 100 kPa | 1345.8
308.09 K, 15200 kPa | 1420
313 K, 60790 kPa | 1589.4
313 K, 65980 kPa | 1607.8
313 K, 69200 kPa | 1618.9
313.01 K, 100 kPa | 1329
313.01 K, 45590 kPa | 1532.5
313.03 K, 30390 kPa | 1471.9
313.03 K, 72900 kPa | 1631.5
313.04 K, 75990 kPa | 1641.7
313.06 K, 15200 kPa | 1404.5
318.18 K, 100 kPa | 1311.7
318.36 K, 15200 kPa | 1387.7
318.4 K, 65950 kPa | 1593.7
318.41 K, 60790 kPa | 1575.1
318.43 K, 72660 kPa | 1617
318.43 K, 73870 kPa | 1621.1
318.43 K, 75990 kPa | 1628.2
318.44 K, 30390 kPa | 1456
318.44 K, 45590 kPa | 1517.7
318.45 K, 30390 kPa | 1455.9

Settings | mass density [kg/m3]
293.15 K | 829.758
298.15 K | 826.37
303.15 K | 822.95
308.15 K | 819.57
313.15 K | 816.12
318.15 K | 812.634

CCCCCCCO [heptan-1-ol]
Settings | speed of sound [m/s]
292.76 K, 75990 kPa | 1654.2
292.77 K, 30390 kPa | 1487.3
292.77 K, 45590 kPa | 1546.9
292.77 K, 60790 kPa | 1602.6
292.77 K, 91180 kPa | 1702
292.77 K, 101320 kPa | 1732.7
292.78 K, 15200 kPa | 1421.7
292.89 K, 100 kPa | 1345.4
298.06 K, 15200 kPa | 1404.9
298.06 K, 30390 kPa | 1471.8
298.06 K, 45590 kPa | 1532.3
298.06 K, 60790 kPa | 1588.2
298.06 K, 75990 kPa | 1640.4
298.06 K, 91180 kPa | 1688.9
298.06 K, 101320 kPa | 1719.6
298.17 K, 100 kPa | 1327.2
302.94 K, 15200 kPa | 1389.5
302.94 K, 30390 kPa | 1457.3
302.94 K, 45590 kPa | 1518.7
302.94 K, 60790 kPa | 1575.3
302.94 K, 91180 kPa | 1677
302.94 K, 101320 kPa | 1708
302.95 K, 75990 kPa | 1628
303.14 K, 100 kPa | 1310.2
307.93 K, 60790 kPa | 1561.9
307.93 K, 91180 kPa | 1664.8
307.94 K, 15200 kPa | 1374
307.94 K, 30390 kPa | 1442.8
307.94 K, 45590 kPa | 1505
307.94 K, 75990 kPa | 1615.5
307.94 K, 101320 kPa | 1696
308.12 K, 100 kPa | 1293.2
312.9 K, 30390 kPa | 1428.7
312.9 K, 45590 kPa | 1491.6
312.9 K, 60790 kPa | 1549.1
312.9 K, 75990 kPa | 1603.1
312.9 K, 91180 kPa | 1653
312.91 K, 15200 kPa | 1358.9
312.91 K, 101320 kPa | 1684.7
313.09 K, 100 kPa | 1276.3
318.29 K, 30390 kPa | 1413.6
318.29 K, 45590 kPa | 1477.5
318.29 K, 60790 kPa | 1535.5
318.29 K, 75990 kPa | 1590
318.29 K, 91180 kPa | 1640.6
318.29 K, 101320 kPa | 1672.4
318.3 K, 15200 kPa | 1342.8
318.37 K, 100 kPa | 1258.6

Settings | mass density [kg/m3]
293.15 K | 822.297
298.15 K | 818.796
303.15 K | 815.269
308.15 K | 811.724
313.15 K | 808.158
318.15 K | 804.546
